“Also recorded” adds a separate entry of the source. Marks after values point to notes of the source that are not given here.
How the values were obtained:
S. cerevisiae JAY 270 [1] = test: Screening of growth in 24-well plates on YPDA; format: cell-based, Saccharomyces cerevisiae; conditions: for Cell growth score (colony size): YPDA, 30° C., 24 h; for Concentration at which cell growth was reduced in the plate assay: molar equivalent of the % w/v value; for Effect on cell growth in the plate assay (words): tested concentrations
Procedure: Procedure: An inoculum culture of S. cerevisiae JAY 270 was grown in 100 mL of yeast extract-peptone-dextrose (YPD) medium (10 g/L yeast extract, 20 g/L peptone, 20 g/L glucose) in 200-mL serum bottles overnight in a shaker at 30° C. and 200 rpm. The cells were collected by centrifuging 10 min at 4000×g and 4° C. To wash off the medium residue, the cell pellet was resuspended in 30 mL of sterile 0.8% (w/v) NaCl solution and centrifuged at 4000×g for 10 min. The cell pellet was washed twice. Finally, the cell pellet was resuspended and diluted in 0.8% (w/v) NaCl to achieve cell concentrations of OD600=0.02 and 0.2.
The eight compounds were added in YPDA separately at 0.03%, 0.05%, 0.1%, and 0.2% (w/v). The standard control treatment contained only YPDA medium without addition of these compounds. Since the TrpOH and TyrOH stock solutions were dissolved in DMSO, the controls for those tests were YPDA with the same concentration of DMSO. A 3-mL aliquot of YPDA medium with or without the test compounds were loaded in each well of the 24-well plate.
Ten μL of the prepared S. cerevisiae JAY 270 cell suspension at OD600=0.02 or 0.2 was loaded onto the YPDA medium in each well of the 24-well plates. Then the plates were sealed with Parafilm and incubated at 30° C. for 24 h. There were four biological replicates for each treatment.
Yeast cell growth was evaluated by visual observation of the colony size in the well and scored as 0, +, ++, and +++.

S. cerevisiae JAY 270 [2] = test: Growth test in liquid YNB medium, low/high nitrogen, serum bottles; format: cell-based, Saccharomyces cerevisiae; conditions: 40, 200, 1000 mg/L; low and high nitrogen media
Procedure: A second set of tests was performed in a defined liquid medium, Yeast Nitrogen Base with Glucose (YNB), containing (NH4)2SO4 at either low (1 mM) or high (10 mM) nitrogen content. […] All serum bottles were incubated in a shaker at 30° C. and 150 RPM. Each treatment was performed in biological duplicate. Samples were collected at 0, 5, and 10 hours.

S. kudriavzezii JAY 1503 = test: Serum-bottle cultivation in YPD, different yeast strains; format: cell-based; conditions: 0.2%; for DCW / DCW Δ vs. ref / OD600 / OD600 Δ vs. ref: S. kudriavzezii JAY 1503, YPD
Procedure: (§1) Analytical methods: Cell growth was evaluated by monitoring OD600 and cell dry mass concentration. For dry mass measurements, 1.0 mL of culture was transferred to a pre-dried and pre-weighed 2-mL centrifuge tube. The tubes were centrifuged for 10 min at 14000 rpm using a microcentrifuge, and then the cell pellets were dried in an oven for 3 days at 65° C. The cell dry mass was determined by subtracting the initial tube mass from the dried mass of tube with cells. The concentrations of glucose, ethanol, and glycerol were measured via HPLC (Shimadzu LC20A series) outfitted with a refractive index detector and using an Aminex HPX-87H (300×7.8 mm) organic acid column and Cation H+ guard cartridge (Bio Rad Laboratories, Hercules, CA). The column was maintained at 65° C. and the mobile phase was 5 mM sulfuric acid with a flow rate of 0.6 mL/min. Standard compound solutions were used to calibrate the HPLC. Each sample was analyzed three times by HPLC.
(§2) Procedure: Seven yeast strains (S. cerevisiae ATCC 26603, S. cerevisiae JAY 238, S. cerevisiae JAY 240, S. cerevisiae JAY 241, S. paradoxus JAY 1502, S. kudriavzezii JAY 1503, and S. mikatae JAY 1504) were pre-cultured in 30 mL of YPD medium in 100 mL serum bottle overnight in a shaker at 30° C. and 200 rpm. The precultured yeast cells of each strains were collected and washed twice. Finally, the cell pellet was resuspended in about 10 mL 0.8% (w/v) NaCl and the OD600 measured. TyrOH, PheOH, and TrpOH were added to 30 mL of YPD medium in 100-mL serum bottles at 0.2% (w/v) respectively. The same amount of DMSO was added in YPD medium and served as control to the TrpOH and TyrOH treatments. The prepared yeast cells were added to obtain the initial cell concentration at OD600=0.2. The serum bottles were sealed and cultured in a shaker at 30° C. and 200 rpm for 24 h. There were three biological replicates for each treatment.

S. mikatae JAY 1504 = test: as above; format: cell-based; conditions: 0.2%; for DCW / DCW Δ vs. ref / OD600 / OD600 Δ vs. ref: S. mikatae JAY 1504, YPD
Procedure: as §1, §2

S. paradoxus JAY 1502 = test: as above; format: cell-based; conditions: 0.2%; for DCW / DCW Δ vs. ref / OD600 / OD600 Δ vs. ref: S. paradoxus JAY 1502, YPD
Procedure: as §1, §2

[3] = S. kudriavzezii JAY 1503, YPD (Table 9B)
[4] = S. mikatae JAY 1504, YPD (Table 9B)
[5] = S. paradoxus JAY 1502, YPD (Table 9B)

## OCCc1ccc(O)cc1 [TyrOH, Tyrosol]
S. cerevisiae JAY 270 [1]; 0.03% (w/v)
  Cell growth score (colony size): +++
S. cerevisiae JAY 270 [1]; 0.05% (w/v)
  Cell growth score (colony size): +++
S. cerevisiae JAY 270 [1]; 0.10% (w/v)
  Cell growth score (colony size): +++
S. cerevisiae JAY 270 [1]; 0.20% (w/v)
  Cell growth score (colony size): +
S. cerevisiae JAY 270 [1]
  Concentration at which cell growth was reduced in the plate assay: 7.2 mM
S. cerevisiae JAY 270 [1]; 24-well plates
  Effect on cell growth in the plate assay (words): inhibited growth; also recorded: reduced the growth
S. cerevisiae JAY 270 [2]
  Inhibitory effect on yeast cell growth in liquid YNB medium: inhibitory at 1000 mg/L in both media, but not at 40 and 200 mg/L
S. kudriavzezii JAY 1503; S. kudriavzezii JAY 1503
  Biomass Yield: 0.029 ± 0.000 g/g
  Biomass yield % change vs. control: −35* %
  EtOH yield: 0.388 ± 0.000 g/g
  EtOH yield % change vs. control: +7.8* %
  Glycerol yield: 0.056 ± 0.001 g/g
  Glycerol yield % change vs. control: +8.1%
S. kudriavzezii JAY 1503
  DCW: 2.10 mg
  DCW Δ vs. ref: 82.4%
  OD600: 0.82
  OD600 Δ vs. ref: 52.4%
S. kudriavzezii JAY 1503; [3]
  Biomass Yield: 0.029 + 0.000 g/g
  Biomass yield Δ vs. ref: −35.1%
  Ethanol yield: 0.388 ± 0.000 g/g
  Ethanol yield Δ vs. ref: 7.8%
  Glycerol yield: 0.056 ± 0.001 g/g
  Glycerol yield Δ vs. ref: 8.07%
S. mikatae JAY 1504; S. mikatae JAY 1504
  Biomass Yield: 0.052 ± 0.000 g/g
  Biomass yield % change vs. control: −20* %
  EtOH yield: 0.359 ± 0.042 g/g
  EtOH yield % change vs. control: +6.7* %
  Glycerol yield: 0.036 ± 0.001 g/g
  Glycerol yield % change vs. control: −24* %
S. mikatae JAY 1504
  DCW: 2.65 mg
  DCW Δ vs. ref: 79.1%
  OD600: 1.75
  OD600 Δ vs. ref: 77.3%
S. mikatae JAY 1504; [4]
  Biomass Yield: 0.052 + 0.000 g/g
  Biomass yield Δ vs. ref: −20.1%
  Ethanol yield: 0.359 ± 0.042 g/g
  Ethanol yield Δ vs. ref: 6.7%
  Glycerol yield: 0.036 ± 0.001 g/g
  Glycerol yield Δ vs. ref: −23.65%
S. paradoxus JAY 1502; S. paradoxus JAY 1502
  Biomass Yield: 0.055 ± 0.000 g/g
  Biomass yield % change vs. control: −15* %
  EtOH yield: 0.410 ± 0.014 g/g
  Glycerol yield: 0.041 ± 0.001 g/g
  Glycerol yield % change vs. control: −9.9%
S. paradoxus JAY 1502
  DCW: 2.15 mg
  DCW Δ vs. ref: 81.1%
  OD600: 1.90
  OD600 Δ vs. ref: 85.5%
S. paradoxus JAY 1502; [5]
  Biomass Yield: 0.055 + 0.000 g/g
  Biomass yield Δ vs. ref: −15.4%
  Ethanol yield: 0.410 ± 0.014 g/g
  Ethanol yield Δ vs. ref: 5.4%
  Glycerol yield: 0.041 ± 0.001 g/g
  Glycerol yield Δ vs. ref: −9.89%

## OCCc1c[nH]c2ccccc12 [TrpOH, tryptophol]
S. cerevisiae JAY 270 [1]; 0.03% (w/v)
  Cell growth score (colony size): +++
S. cerevisiae JAY 270 [1]; 0.05% (w/v)
  Cell growth score (colony size): ++
S. cerevisiae JAY 270 [1]; 0.10% (w/v)
  Cell growth score (colony size): +
S. cerevisiae JAY 270 [1]; 0.20% (w/v)
  Cell growth score (colony size): 0
S. cerevisiae JAY 270 [1]
  Concentration at which cell growth was reduced in the plate assay: 3.1 mM
S. cerevisiae JAY 270 [1]; 24-well plates
  Effect on cell growth in the plate assay (words): inhibited growth; also recorded: reduced the growth
S. cerevisiae JAY 270 [1]; w/v, 24-well plates
  Concentration at which cell growth was reduced/inhibited in the plate assay: 0.05%
S. cerevisiae JAY 270 [2]
  Inhibitory effect on yeast cell growth in liquid YNB medium: strongest inhibitory effect
S. kudriavzezii JAY 1503; S. kudriavzezii JAY 1503
  Cell growth: very low cell growth
S. kudriavzezii JAY 1503
  DCW: 0.48 mg
  DCW Δ vs. ref: 18.6%
  OD600: 0.16
  OD600 Δ vs. ref: 9.9%
S. mikatae JAY 1504; S. mikatae JAY 1504
  Cell growth: very low cell growth
S. mikatae JAY 1504
  DCW: 1.45 mg
  DCW Δ vs. ref: 43.3%
  OD600: 0.64
  OD600 Δ vs. ref: 28.1%
S. paradoxus JAY 1502; S. paradoxus JAY 1502
  Biomass Yield: 0.038 ± 0.001 g/g
  Biomass yield % change vs. control: −42* %
  EtOH yield: 0.417 ± 0.056 g/g
  EtOH yield % change vs. control: +7.2* %
  Glycerol yield increase from control: 71%
S. paradoxus JAY 1502
  DCW: 1.40 mg
  DCW Δ vs. ref: 52.8%
  OD600: 0.40
  OD600 Δ vs. ref: 18.0%
S. paradoxus JAY 1502; [5]
  Biomass Yield: 0.038 + 0.001 g/g
  Biomass yield Δ vs. ref: −42.0%
  Ethanol yield: 0.417 ± 0.056 g/g
  Ethanol yield Δ vs. ref: 7.2%

## OCCc1ccccc1 [PheOH, 2-phenylethanol]
S. cerevisiae JAY 270 [1]; 0.03% (w/v)
  Cell growth score (colony size): +++
S. cerevisiae JAY 270 [1]; 0.05% (w/v)
  Cell growth score (colony size): +++
S. cerevisiae JAY 270 [1]; 0.10% (w/v)
  Cell growth score (colony size): ++
S. cerevisiae JAY 270 [1]; 0.20% (w/v)
  Cell growth score (colony size): +
S. cerevisiae JAY 270 [1]
  Concentration at which cell growth was reduced in the plate assay: 8.2 mM
S. cerevisiae JAY 270 [1]; 24-well plates
  Effect on cell growth in the plate assay (words): inhibited growth; also recorded: reduced the growth
S. cerevisiae JAY 270 [2]
  Inhibitory effect on yeast cell growth in liquid YNB medium: inhibitory at 1000 mg/L in both media, but not at 40 and 200 mg/L
S. kudriavzezii JAY 1503; S. kudriavzezii JAY 1503
  Biomass Yield: 0.036 ± 0.001 g/g
  Biomass yield % change vs. control: −19%
  EtOH yield: 0.399 ± 0.030 g/g
  EtOH yield % change vs. control: +8.7%
  Glycerol yield: 0.060 ± 0.005 g/g
  Glycerol yield % change vs. control: +19* %
S. kudriavzezii JAY 1503
  DCW: 1.90 mg
  DCW Δ vs. ref: 84.4%
  OD600: 0.92
  OD600 Δ vs. ref: 74.9%
S. kudriavzezii JAY 1503; [3]
  Biomass Yield: 0.043 + 0.004 g/g
  Biomass yield Δ vs. ref: 18.6%
  Ethanol yield: 0.399 ± 0.030 g/g
  Ethanol yield Δ vs. ref: 8.7%
  Glycerol yield: 0.06 ± 0.005 g/g
  Glycerol yield Δ vs. ref: 18.78%
S. mikatae JAY 1504; S. mikatae JAY 1504
  Biomass Yield: 0.053 ± 0.000 g/g
  Biomass yield % change vs. control: −14%
  EtOH yield: 0.386 ± 0.009 g/g
  EtOH yield % change vs. control: +3.6%
  Glycerol yield: 0.043 ± 0.007 g/g
  Glycerol yield % change vs. control: +4.1%
S. mikatae JAY 1504
  DCW: 2.35 mg
  DCW Δ vs. ref: 77.1%
  OD600: 1.85
  OD600 Δ vs. ref: 82.9%
S. mikatae JAY 1504; [4]
  Biomass Yield: 0.053 + 0.000 g/g
  Biomass yield Δ vs. ref: −13.8%
  Ethanol yield: 0.386 ± 0.009 g/g
  Ethanol yield Δ vs. ref: 3.6%
  Glycerol yield: 0.043 ± 0.007 g/g
  Glycerol yield Δ vs. ref: 4.09%
S. paradoxus JAY 1502; S. paradoxus JAY 1502
  Biomass Yield: 0.048 ± 0.001 g/g
  Biomass yield % change vs. control: −30* %
  EtOH yield: 0.393 ± 0.000 g/g
  EtOH yield % change vs. control: +2.7%
  Glycerol yield: 0.048 ± 0.002 g/g
  Glycerol yield % change vs. control: +22* %
S. paradoxus JAY 1502
  DCW: 1.95 mg
  DCW Δ vs. ref: 78.0%
  OD600: 1.64
  OD600 Δ vs. ref: 70.0%
S. paradoxus JAY 1502; [5]
  Biomass Yield: 0.048 + 0.001 g/g
  Biomass yield Δ vs. ref: −29.8%
  Ethanol yield: 0.393 ± 0.000 g/g
  Ethanol yield Δ vs. ref: 2.7%
  Glycerol yield: 0.048 ± 0.002 g/g
  Glycerol yield Δ vs. ref: 21.98%
